In ChEMBL document CHEMBL1143488, “Bis(indole) alkaloids as sortase A inhibitors from the sponge Spongosorites sp” (Bioorg Med Chem Lett, 2005):
≈ marks a conversion by molar mass, not a printed value.

Assays:
Sortase A = molecular target: T1, Sortase A (Staphylococcus aureus, UniProt Q9S446); test: Inhibitory activity against Sortase A from Staphylococcus aureus
T1 sequence (Q9S446 whole entry): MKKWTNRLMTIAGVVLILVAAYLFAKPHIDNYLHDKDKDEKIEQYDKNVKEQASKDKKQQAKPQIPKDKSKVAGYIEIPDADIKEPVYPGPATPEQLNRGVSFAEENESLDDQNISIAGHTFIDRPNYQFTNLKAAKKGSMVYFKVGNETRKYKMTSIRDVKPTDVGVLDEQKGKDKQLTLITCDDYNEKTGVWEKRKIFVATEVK

Staphylococcus aureus = test: Minimum inhibitory concentration against Staphylococcus aureus Newman strain; format: functional

Structure (SMILES)	IC50 (Sortase A) [µM]	MIC (Staphylococcus aureus) [µg/mL]
O=C1N[C@@H](c2c[nH]c3cc(Br)ccc23)CN[C@@H]1c1c[nH]c2cc(Br)ccc12	> 205	12.5 (≈ 25.6 µM)
O=C1N[C@H](c2c[nH]c3cc(Br)ccc23)CN=C1c1c[nH]c2cc(Br)ccc12	178	3.12 (≈ 6.42 µM)
O=C1NC[C@@H](c2c[nH]c3cc(Br)ccc23)N=C1c1c[nH]c2cc(Br)ccc12	142	6.25 (≈ 12.9 µM)
O=C1N[C@H](c2c[nH]c3cc(Br)ccc23)CN=C1c1c[nH]c2ccccc12	83.6	6.25 (≈ 15.3 µM)
O=C1NC[C@@H](c2c[nH]c3cc(Br)ccc23)N=C1c1c[nH]c2ccccc12 [(R)-6'-DEBROMOHAMACANTHIN B]	> 246	100 (≈ 246 µM)
O=C(c1ncc(-c2c[nH]c3cc(Br)ccc23)[nH]1)c1c[nH]c2ccccc12 [BROMODEOXYTOPSENTIN]	48	
O=C(c1nc(-c2c[nH]c3cc(Br)ccc23)c[nH]1)c1c[nH]c2cc(O)ccc12 [BROMOTOPSENTIN]	39.6	25 (≈ 59.3 µM)
O=C(c1nc(-c2c[nH]c3ccccc23)c[nH]1)c1c[nH]c2ccccc12 [DEOXYTOPSENTIN]	48	
CC[C@H](CC[C@@H](C)[C@H]1CC[C@H]2[C@@H]3CC=C4C[C@@H](O[C@@H]5O[C@H](CO)[C@@H](O)[C@H](O)[C@H]5O)CC[C@]4(C)[C@H]3CC[C@]12C)C(C)C [SITOGLUSIDE]	31.7	200 (≈ 347 µM)
